The source of these data is ChEMBL document CHEMBL1152563, “Identification of new agonists of urotensin-II from a cyclic peptide library” (Bioorg Med Chem, 2009).

The target in experiment [1] is T1, Urotensin-2 receptor (Homo sapiens, UniProt Q9UKP6).
T1 sequence (Q9UKP6 whole entry): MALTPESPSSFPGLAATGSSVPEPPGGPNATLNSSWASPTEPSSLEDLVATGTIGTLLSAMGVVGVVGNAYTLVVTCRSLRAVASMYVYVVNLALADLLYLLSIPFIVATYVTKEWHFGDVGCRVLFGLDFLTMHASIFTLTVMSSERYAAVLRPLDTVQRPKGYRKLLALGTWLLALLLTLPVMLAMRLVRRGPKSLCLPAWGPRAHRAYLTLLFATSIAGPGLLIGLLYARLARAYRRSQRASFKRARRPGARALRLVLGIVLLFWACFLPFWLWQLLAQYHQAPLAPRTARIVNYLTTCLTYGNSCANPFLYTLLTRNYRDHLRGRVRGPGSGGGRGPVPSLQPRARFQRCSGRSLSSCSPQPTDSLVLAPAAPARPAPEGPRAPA
Briefly: Agonist activity at human GPR14 expressed in HEK293 cells by calcium mobilization assay. It is filed as functional, cell-based. On the technique in general: Calcium flux is commonly read through the fluorescence of an indicator in the cells.

In experiment [2] the target is T2, Urotensin-2 receptor (Homo sapiens) (UniProt Q9UKP6).
T2 sequence (whole entry): T1 sequence (Q9UKP6 whole entry)
The experiment can be described thus: Agonist activity at human GPR14 expressed in HEK293 cells by calcium mobilization assay relative to urotensin 2. It is filed as functional, cell-based.

Peptide text beside a SMILES is read from it.

By EC50 is commonly meant the concentration at which the effect is half-maximal. One may read the Emax as the greatest response seen or fitted, relative to the assay's reference. Consider `NCCCC[C@@H]1NC(=O)[C@H](Cc2c[nH]c3ccccc23)NC(=O)[C@H](Cc2ccccc2)NC(=O)CNC(=O)[C@@H]2CCCN2C(=O)[C@H](Cc2ccccc2)NC1=O` (cyclo(FPGFWK)), for which the EC50 in experiment [1] is 13.2 nM. Also, the maximal effect (Emax) in experiment [2] stood at 101%.

On to `NCCCC[C@@H]1NC(=O)[C@H](Cc2c[nH]c3ccccc23)NC(=O)[C@H](CO)NC(=O)CNC(=O)[C@@H]2CCCN2C(=O)[C@H](Cc2ccccc2)NC1=O` (cyclo(FPGSWK)), for which the EC50 in experiment [1] stood at 10.1 nM. Moreover, the Emax in experiment [2] is 96%.

Turning to `NCCCC[C@@H]1NC(=O)[C@H](Cc2c[nH]c3ccccc23)NC(=O)[C@H](Cc2ccc(O)cc2)NC(=O)CNC(=O)[C@@H]2CCCN2C(=O)[C@H](Cc2ccccc2)NC1=O` (cyclo(FPGYWK)), the EC50 in experiment [1] turned out to be 75.7 nM. Moreover, the Emax in experiment [2] was 102%.

`NCCCC[C@@H]1NC(=O)[C@H](Cc2c[nH]c3ccccc23)NC(=O)[C@H](Cc2ccccc2)NC(=O)CNC(=O)[C@@H]2CCCN2C(=O)[C@H](Cc2c[nH]c3ccccc23)NC1=O` (cyclo(FWKWPG)): in experiment [1], the EC50 came out at 20.6 nM. Also, the Emax in experiment [2] amounted to 92%.

As to `NCCCC[C@@H]1NC(=O)[C@H](Cc2c[nH]c3ccccc23)NC(=O)[C@H](Cc2ccccc2)NC(=O)CNC(=O)[C@@H]2CCCN2C(=O)[C@H](Cc2ccc(O)cc2)NC1=O` (cyclo(FWKYPG)), the EC50 in experiment [1] stood at 6.94 nM. For the same molecule, the Emax in experiment [2] turned out to be 98%.

With `NCCCC[C@@H]1NC(=O)[C@H](Cc2c[nH]c3ccccc23)NC(=O)[C@H](CO)NC(=O)CNC(=O)[C@@H]2CCCN2C(=O)[C@H](Cc2c[nH]c3ccccc23)NC1=O` (cyclo(GSWKWP)), the half-maximal effective concentration (EC50) in experiment [1] was 16.7 nM. In addition, the Emax in experiment [2] was determined as 100%.

With `NCCCC[C@@H]1NC(=O)[C@H](Cc2c[nH]c3ccccc23)NC(=O)[C@H](CO)NC(=O)CNC(=O)[C@@H]2CCCN2C(=O)[C@H](Cc2ccc(O)cc2)NC1=O` (cyclo(GSWKYP)), in experiment [1], the EC50 was determined as 8.51 nM. Besides, the Emax in experiment [2] is 108%.

With `NCCCC[C@@H]1NC(=O)[C@H](Cc2c[nH]c3ccccc23)NC(=O)[C@H](Cc2ccc(O)cc2)NC(=O)CNC(=O)[C@@H]2CCCN2C(=O)[C@H](Cc2ccc(O)cc2)NC1=O` (cyclo(GYWKYP)), the EC50 in experiment [1] turned out to be 12.6 nM. In addition, the Emax in experiment [2] came to 86%.
